Laboratory results: paper PMC4767442 (Oncotarget, 2015)

Assays:
[1] = tested on: H9c2 rat heart-derived myoblast cell line; test: MTT proliferation/viability assay, H9c2; format: cell-based; details: 72 h/37°C, mean ± S.D., serum- and pyruvate-free DMEM
Experimental: (§1) The MCF-7 human breast adenocarcinoma cell line was purchased from the European Collection of Cell Cultures (U.K.). The HL-60 human promyelocytic leukemia cell line, HCT116 human colorectal carcinoma cell line, H9c2 rat heart-derived myoblast cell line and 3T3 mouse embryo fibroblast line, were obtained from the American Type Culture Collection (VA, U.S.A.). Cells were cultured in Dulbecco's modified Eagle's medium (DMEM, Lonza, Switzerland) with or without (for MCF-7 cells only) phenol red, supplemented with 10% heat-inactivated fetal bovine serum (FBS; Lonza, Switzerland), 1% penicillin/streptomycin solution (Lonza, Switzerland) and 10 mM HEPES buffer (pH 7.0-7.6; Sigma-Aldrich, Germany). The HL-60 cell line was maintained in RPMI medium (Sigma-Aldrich, Germany) supplemented with 10% heat-inactivated FBS and 1% penicillin/streptomycin solution. All cell lines were cultured in 75 cm^2 tissue culture flasks (Switzerland) at 37°C in a humidified atmosphere of 5% CO2. Sub-confluent cells or, in the case of HL-60 cells, a cell suspension, were sub-cultured every 3-4 days.
(§2) Cells were seeded in 96-well plates for 24 h/37°C at a density of 5,000 (MCF-7), 10,000 (HL-60), 2,000 (HCT116) and 10,000 (3T3 and H9c2) cells/well. For 3T3 and H9c2 cells, the medium was changed to serum- and pyruvate-free DMEM 24 h prior to the experiments. Anti-proliferative and cytotoxicity effects of the compounds were studied at different concentrations after incubations for 72 h/37°C. Viabilities of cells were determined using MTT assays (Sigma-Aldrich, Germany) according to the manufacturer's instructions on a Tecan Infinite 200M plate reader (Tecan, Austria). The proliferation/viability of treated groups was expressed as a percentage of the untreated controls (100%).

[2] = tested on: 3T3 mouse embryo fibroblast line; test: MTT proliferation/viability assay, 3T3; format: cell-based; details: 72 h/37°C, mean ± S.D., serum- and pyruvate-free DMEM
Experimental: as §1, §2

[3] = Long-term stability in plasma samples at -80°C; format: in vitro ADME, rat; details: for Long-term stability: plasma, -80°C, 7 days; for decomposition on storage (in words): up to 7 days stored at −80°C
Experimental: The UHPLC-MS/MS methods for quantitative assays were validated with respect to selectivity, linearity, precision, accuracy, stability, recovery, matrix effects and dilution integrity (see […]
Linearity was examined over the concentration ranges described in Supplementary Table 1 using a weighted (1/x 2) linear regression in GraphPad Prism 6 (v. 6.04, GraphPad Software […]
Stability was assessed at low, medium and high concentration levels. Long -term stability was assessed for plasma samples at -80°C over a period of 7 days (three aliquots per level; Supplementary Table 3). […]

[4] = tested on: oxyhemoglobin in red blood cells; design: method as in PMID 22508546; details: cited from earlier work
[5] = design: method as in PMID 21658021; details: cited from earlier work
[6] = high concentration level (2.105-3.115 µmol·L-1)
[7] = low concentration level (0.035-0.156 µmol·L-1)
[8] = medium concentration level (0.702-1.558 µmol·L-1)

Long-term stability [3, 6] | Long-term stability [3, 7] | Long-term stability [3, 8] | decomposition on storage (in words) [3] | Compound | IC50 [1] | IC50 [2] | oxidation of oxyhemoglobin to methemoglobin [4] | toxicity after oral administration [5]
112.39% | 85.12% | 87.76% | No significant decomposition | CN(C(=S)NN=C(c1ccccn1)c1ccccn1)C1CCCCC1 [DpC, di(2-pyridyl)ketone 4-cyclohexyl-4-methyl-3-thiosemicarbazone] | 85 ± 13 nM | 412 ± 177 nM | does not induce oxidation of oxyhemoglobin to methemoglobin | –
94.93% | 112.56% | 108.06% | No significant decomposition | CN(C)C(=S)NN=C(c1ccccn1)c1ccccn1 [Dp44mT, di(2-pyridyl)ketone 4,4-dimethyl-3-thiosemicarbazone] | 124 ± 49 nM | 157 ± 51 nM | – | toxic after oral administration
